Data taken from US5635486A, “Ophthalmic composition comprising a sleep adjusting substance” (priority 1990, dated 1997).
Like-named read-outs stand apart in the source and are kept apart here.

Tests used:
[1] = into a lateral ventricle, rat; cited from earlier work
mice = test: Locomotor activity of mice after instillation of ophthalmic medicament to the eye (Automex, total activity ratio per hour vs saline); assay type: in vivo, mouse (ICR male); conditions: for time when the mice started to move / total activity ratio / locomotor activity (in words) / Total Activity ratio per hour / pain or itch in the eyes as cause of the sleep inhibition: instilled to mouse eye; for sleep inducing or inhibiting activity (in words): by instillation to mouse eye; for Total Activity ratio per hour: 19:30-20:30
Experimental: Three ICR male mice were put in a cage and bred under the condition of a day-and-night cycle of every 12 hours (the daytime: from 7:35 to 19:35; the nighttime: from 19:35 to 7:35) for an experiment.
In this manner, the mice were habituated to the instillation by administering the saline every day. After the same activity pattern appeared for two days continuously, an ophthalmic medicament containing a desired sleep adjusting substance was instilled for consecutive two days. The ophthalmic medicament was prepared by dissolving the sleep adjusting substance in saline. […] The locomotor activity (unit: count) of mice was measured every 10 minutes by using a measuring device for the locomotor activity of an experimental animal "Automex" (produced by Tokai Irika). The locomotor activity was measured by putting a mouse on the measuring device. Every time any of the mice moved, a counter of the device cumulated the number of the movements. Thus, the larger cumulated number reflected more energetic activity. Such a measurement was conducted twice (for two days). An average value of the locomotor activity at each time was calculated and the results were plotted to obtain a graph, with time as the abscissas and the average locomotor activity as the ordinates. This graph depicts an activity pattern of the mice as a function of an administration of the ophthalmic medicament. A total of the locomotor activity (i.e., an area below the curve in the graph) per one hour between 19: 30 which is 30 minutes after the administration and 20:30 was calculated. In the same manner, as for the mice with the administration of saline alone, a total locomotor activity per the same one hour period as above was calculated. The ratio (%) of the calculated total locomotor activity per one hour of the mice with saline alone to that of the mice with the administration of the ophthalmic medicament (hereinafter called the "total activity ratio") was obtained. The mice whose activity patterns were not stable during the habituation to the administration of saline were not used in the following examples.

[2] = cited from earlier work; for sleep effect: species and route not stated
[3] = cited from earlier work
neurons = conditions: cited from earlier work
[4] = cited from earlier work; remark: listed apart in the source
human = conditions: cited from earlier work
animal = conditions: in an animal; cited from earlier work
[5] = into a cerebral ventricle, rabbit; cited from earlier work
[6] = injected into an eyeball; axonal flow; cited from earlier work
[7] = administered into a cerebral ventricle

Nc1ncnc2c1ncn2[C@@H]1O[C@H](CO)[C@@H](O)[C@H]1O [Adenosine, adenosine]
sleep effect [1]: induce non-REM sleep

CCCCC[C@H](O)/C=C/[C@H]1C(=O)C[C@H](O)[C@@H]1C/C=C\CCCC(=O)O [PGD2, prostaglandin D2]
time when the mice started to move (mice; 100 μM): shifted backward
total activity ratio (mice; 100 μM, vs saline control): 78%
sleep effect [2]: strong sleep inducing substance

CCCCC[C@H](O)/C=C/[C@H]1[C@H](O)CC(=O)[C@@H]1C/C=C\CCCC(=O)O [PGE2, prostaglandin E2]
sleep effect [2]: inhibits sleep
sleep effect ([2]; listed as prostaglandin E2): sleep inhibiting activity

C1CCNCC1 [Piperidine, piperidine]
total activity ratio (mice; 100 μM, vs saline control): 72%
sleep effect [2]: sleep inducing activity

O=c1cc[nH]c(=O)[nH]1 [Uracil, uracil, reference compound]
locomotor activity (in words) (mice; 100 μM): did not decrease

O=c1ccn([C@@H]2O[C@H](CO)[C@@H](O)[C@H]2O)c(=O)[nH]1 [Uridine, uridine]
sleep inducing or inhibiting activity (in words) (mice; 100 μM): showed a sleep inducing activity
Total Activity ratio per hour (mice; 10 μM): 63 % of control
Total Activity ratio per hour (mice; 30 μM): 57 % of control
locomotor activity (in words) (mice; 100 μM): remarkably decreased
time when the mice started to move (mice; 100 μM): shifted backward
Total Activity ratio per hour (mice; 100 μM): 53 % of control
sleep effect ([3]; injection of only 10 pmole into a cerebral ventricle): induces non-REM sleep
excitation of the neurons (neurons): induces or inhibits excitation of the neurons

Nc1ccn([C@@H]2O[C@H](CO)[C@@H](O)[C@H]2O)c(=O)n1 [cytidine]
sleep inducing or inhibiting activity (in words) (mice; 100 μM): can inhibit sleep
locomotor activity (in words) (mice; 100 μM): completely disappeared temporarily after the instillation
pain or itch in the eyes as cause of the sleep inhibition (mice; 100 μM): not caused by a pain or an itch in the eyes
time when the mice started to move (mice; 100 μM): advanced
total activity ratio (mice; 100 μM, vs saline control): 127%
arousal hours [3, 7]: increase arousal hours
total sleep hours [3, 7]: decrease total sleep hours

N[C@@H](Cc1c[nH]c2ccccc12)C(=O)O [tryptophan]
effectiveness of oral administration [4]: somewhat effective

arginine vasotocin [AVT]
sleep effect (human; in a human): REM sleep
amount of serotonin in the brain ([2]; mechanism of sleep induction): increasing the amount of serotonin in the brain
sleep effect (animal): induces non-REM sleep

delta-sleep-inducing peptide [DSIP]
sleep inducing or inhibiting activity (in words) (mice; 100 μM): exerted a sleep inhibiting activity
pain or itch in the eyes as cause of the sleep inhibition (mice; 100 μM): certainly not due to any pain or itch in the eyes
total activity ratio (mice; 100 μM in saline containing 0.1% bovine serum albumin): 130%
sleep effect [5]: induce sleep
anti-stress activity (human; administered to a human): anti-stress activity such as causing sleep inhibition

horseradish peroxidase: an enzyme with a molecular weight of about 40,000, frequently used as a tracer
uptake by ganglion cells and transport to the suprachiasmatic nucleus [6]: uptaken by the ganglion cells, and then transported to the suprachiasmatic nucleus through the axonal flow
